Assay results published in ChEMBL document CHEMBL1201862, “PubChem BioAssay data set” (2004).
Activity calls are given as the source filed them.

Legend:
Vero [1] = assay: West Nile virus antiviral activity, cell-based, CPE readout (AID 1621); type: functional; details: Chlorocebus sabaeus
Vero [2] = assay: host cell cytotoxicity of antiviral hits, dose response, cytotoxicity control for West Nile virus antiviral project, secondary assay (AID 1650); type: functional; details: Chlorocebus sabaeus
[3] = inhibitors of intracellular T. cruzi replication, confirmation, NIH3T3 host cells, beta-gal luminescence (AID 2044); type: functional, cell-based;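 further: intracellular parasites grown in NIH/3T3 mouse fibroblasts as host cells; luminescent beta-galactosidase reporter signal from transgenic T. cruzi replicating inside host cells; inhibitors lower the luminescence signal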
cells [4] = assay: cells
[5] = cytotoxicity toward NIH3T3 fibroblasts, dose response, counter-screen, cell-based, ATP luminescence, mouse fibroblasts (AID 2010); type: functional;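 further: cells exposed to compound for about 90 hours before reading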
cells [6] = type: functional, cell-based
[7] = control 3'UTR Renilla luciferase suppression, dose response, counter-screen for Shn3 inhibitor project, cell-based, Clone20-Shn3RL, cherry-picked (AID 624133); type: functional
HEK293 [8] = assay: inhibitors of LMP1-driven NF-kB reporter, dose response, cell-based, HEK293, luciferase, cherry-pick (AID 588343); type: functional; details: Homo sapiens
[9] = HepG2 cell cytotoxicity, dose response, cytotoxicity control for Shn3 inhibitor project, CellTiter-Glo, cherry-picked (AID 624134); type: functional, cell-based
HEK293 [10] = assay: cells; type: functional, cell-based; details: Homo sapiens
[11] = Luminescence-based dose response cell-based high throughput screening assay for cytotoxic compounds using the IEC-6 intestinal epithelial cell line. [Related pubchem assays: 1858 (Summary AID.), 1825 (Counterscreen.), 1907 (Confirmation screen.)]; type: functional
cells [12] = type: functional, cell-based; remark: listed apart in the source
HEK293 [13] = assay: cells; type: functional, cell-based; details: Homo sapiens; remark: listed apart in the source
BJ [14] = assay: cells; type: functional, cell-based; details: Homo sapiens
[15] = target: Nucleotide-binding oligomerization domain-containing protein 2 (Homo sapiens, UniProt Q9HC29); assay: NOD2 signaling inhibitors, cell-based, luminescence, uHTS, HEK293 (AID 1566); type: functional
[16] = cytotoxicity toward DRD oncogenic fibroblasts, dose response, cell-based, non-viral oncogenic, luminescence (AID 1934); type: functional; details: Homo sapiens
HEK293 [17] = assay: cells; type: functional, cell-based; details: Homo sapiens; remark: listed apart in the source
HEK293 [18] = assay: NOD1 signaling inhibitors, primary screen, cell-based, luminescence, uHTS (AID 1578); type: functional; details: Homo sapiens
BJ [19] = assay: cytotoxicity toward BJ-TERT-LT-ST fibroblasts, dose response, cell-based, RAS-independent, luminescence (AID 1935); type: functional; details: Homo sapiens;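 further: BJ fibroblasts immortalized with TERT plus LT and ST oncogenes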
Streptococcus = assay: Group A Streptococcus viability loss, dose response, counter-screen for streptokinase expression inhibitor project, luminescence, BacTiterGlo (AID 1915); type: functional, organism-based;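 further: potency for reduction of bacterial viability or growth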
HEK293 [20] = assay: NOD2 signaling inhibitors in MDP-stimulated cells, cell-based, uHTS, luminescence (AID 2001); type: functional; details: Homo sapiens
[21] = Shn3 3'UTR reporter inhibitors, dose response, cell-based, Clone20 osteoblasts, firefly luciferase, cherry-picked (AID 624132); type: functional;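 further: firefly luciferase luminescence from reporter carrying the Shn3 3'UTR in osteoblasts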
BJ [22] = assay: cytotoxicity toward BJ-TERT fibroblasts, dose response, cell-based, RAS-independent, luminescence (AID 1933); type: functional; details: Homo sapiens
[23] = test system: Streptococcus sp. 'group A'; assay: growth inhibition of control SK(-) GAS strain, dose response, counter-screen for streptokinase expression inhibitor project, luminescence, kanamycin, BacTiterGlo, confirmation (AID 1900); type: functional, organism-based

Chain of Nucleotide-binding oligomerization domain-containing protein 2 (Q9HC29 whole entry, the tested form may be a part): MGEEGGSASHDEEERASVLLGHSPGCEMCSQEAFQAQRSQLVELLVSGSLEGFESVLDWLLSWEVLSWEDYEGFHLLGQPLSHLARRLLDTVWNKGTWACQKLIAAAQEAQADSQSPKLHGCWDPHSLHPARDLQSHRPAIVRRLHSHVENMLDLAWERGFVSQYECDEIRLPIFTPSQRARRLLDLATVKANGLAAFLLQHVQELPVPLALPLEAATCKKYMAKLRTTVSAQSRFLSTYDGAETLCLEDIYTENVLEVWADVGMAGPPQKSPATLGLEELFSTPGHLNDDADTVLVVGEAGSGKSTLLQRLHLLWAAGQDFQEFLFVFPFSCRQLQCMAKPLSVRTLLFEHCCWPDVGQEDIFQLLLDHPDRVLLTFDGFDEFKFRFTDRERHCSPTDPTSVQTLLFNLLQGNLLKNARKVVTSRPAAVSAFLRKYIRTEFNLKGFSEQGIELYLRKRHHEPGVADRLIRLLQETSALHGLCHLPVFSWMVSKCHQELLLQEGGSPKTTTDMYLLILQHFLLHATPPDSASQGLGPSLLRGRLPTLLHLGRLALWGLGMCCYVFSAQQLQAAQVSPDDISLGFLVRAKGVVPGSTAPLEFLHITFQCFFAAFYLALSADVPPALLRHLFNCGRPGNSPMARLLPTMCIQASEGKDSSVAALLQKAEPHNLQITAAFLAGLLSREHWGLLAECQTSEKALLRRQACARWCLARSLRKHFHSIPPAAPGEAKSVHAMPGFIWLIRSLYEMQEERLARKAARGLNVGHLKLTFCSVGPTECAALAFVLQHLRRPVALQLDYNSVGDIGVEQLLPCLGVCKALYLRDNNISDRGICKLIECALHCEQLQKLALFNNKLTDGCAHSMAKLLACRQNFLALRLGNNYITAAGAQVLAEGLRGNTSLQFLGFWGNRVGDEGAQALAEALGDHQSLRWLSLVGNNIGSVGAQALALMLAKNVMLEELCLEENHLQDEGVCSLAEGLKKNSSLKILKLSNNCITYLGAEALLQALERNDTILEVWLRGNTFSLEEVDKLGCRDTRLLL

## CN(C)CCCNC(=O)c1cc2sc3ccccc3c2s1
Vero [1]
  IC50: 21.4 µM (active)
Vero [2]
  CC50: 14.6 µM (active)

## O=C1NC(=O)N(C2CCCCCC2)C(=O)/C1=C/NC1CCN(Cc2ccccc2)CC1
[3]
  EC50: < 0.1 µM (active)
Cells [4]
  EC50: 0.361 µM (active)
[5]
  EC50: 23.5 µM (active)

## CC(=O)NC(c1ccc(Cl)cc1Cl)c1ccc2cccnc2c1O (stereo unspecified)
Cells [6]
  EC50: 4.6 µM (active)
[7]
  AC50: 0.778 µM (active)
HEK293 [8]
  AC50: 4.24 µM (active)
[9]
  AC50: 0.764 µM (active)
HEK293 [10]
  IC50: > 20 µM (inactive)
[11]
  IC50: 0.386 µM (active)
[3]
  EC50: 0.163 µM (active)
Cells [12]
  EC50: > 350 µM (not active)
HEK293 [13]
  IC50: > 20 µM (inactive)
BJ [14]
  EC50: 6.93 µM (active)
[15]
  EC50: > 20 µM (inactive)
[16]
  EC50: 0.95 µM (active)
HEK293 [17]
  IC50: 12 µM (active)
HEK293 [18]
  EC50: > 20 µM (inactive)
[5]
  EC50: 0.192 µM (active)
BJ [19]
  EC50: 2.82 µM (inconclusive)
Streptococcus
  EC50: 6.93 µM (active)
HEK293 [20]
  IC50: > 20 µM (inactive)
[21]
  AC50: 0.465 µM (active)
BJ [22]
  EC50: 0.837 µM (active)
[23]
  EC50: 4.98 µM (active)
